Reference: article PMC7824033, “Flavones, Flavonols, and Glycosylated Derivatives—Impact on Candida albicans Growth and Virulence, Expression of CDR1 and ERG11, Cytotoxicity” (Pharmaceuticals, 2020)
In brackets after ≈: the same amount, converted by molar mass. Entries after “also recorded” stand apart in the source; their conditions may differ. Read-outs that look alike come from different tables or passages of the source.

Key:
[1] = tested on: C. albicans biofilm; settings: C. albicans CAD1 biofilm; cited from earlier work
[2] = tested on: C. albicans 475/15 biofilm formation; assay: Inhibition of biofilm formation (crystal violet); type: cell-based, Candida albicans; settings: for antibiofilm activity: MIC and subMICs; for inhibition of biofilm formation: compound applied at MIC
Procedure: Potential of selected compounds to interfere with C. albicans 475/15 biofilm formation was investigated as previously described. Briefly, C. albicans 475/15 was incubated with serial dilution of the compounds (MIC and subMICs) in YPD medium, in 96-well microtiter plates with adhesive bottom (Sarstedt, Nümbrecht, Germany), at 37 °C for 24 h. After incubation, wells were washed twice with sterile PBS and methanol was added into each well. After fixation, methanol was discarded, and the plate was air dried. Formed biofilms were stained with 0.1% crystal violet (Bio-Merieux, Craponne, France) for 30 min. The plate was gently washed under the tap of water and air dried. The stain bound to the remaining biofilms was dissolved with ethanol (96%, Zorka, Šabac, Serbia). Absorbance was read on a Multiskan™ FC Microplate Photometer, Thermo Scientific™. The percentage of inhibition of biofilm formation was calculated by the formula:[(A620control − A620sample)/A620control] × 100

[3] = tested on: Candida albicans; assay: Microdilution assay, MIC (strain not named); type: cell-based; settings: read-out: minimum inhibitory concentration (MIC)
Source text: (§1) C. albicans was isolated from oral cavities of patients at ENT Clinic, Clinical Hospital Centre Zvezdara, Belgrade, Serbia after obtaining informed written consent and identified by using CHROMagar plates (Biomerieux, Craponne, France). Strains were maintained on Sabouraud Dextrose Agar (Merck, Darmstadt, Germany) and are deposited at the Mycological Laboratory, Department of Plant Physiology, Institute for Biological Research “Siniša Stanković”, National Institute of Republic of Serbia, University of Belgrade. The collection of samples was approved by the Ethical Committee (Office for Human Research Protection, Zvezdara University Medical Center, Belgrade, Serbia, document issued 26 October 2016).
(§2) Microdilution assay with some modification was used for determination of minimum inhibitory (MIC) and minimum fungicidal concentrations (MFC). Yeast cultures were adjusted to 1.0 × 10^5 CFU/per well with sterile PBS (Phosphate buffered saline, pH 7.4). The 96-well microtiter plates with serially diluted flavonoids (concentration range 0.3–75 µg/mL) in liquid broth were incubated at 37 °C for 24 h. After incubation, MIC and MFC were determined. The lowest concentrations that were not inducing microscopically observed growth were considered as MIC. For microscopic determination of growth, we used inverted microscope Nikon Eclipse TS2 (Amsterdam, Netherland) and examined the fungal growth in the wells of 96-well microtiter plates compared to the control (untreated yeast cells). MFC values were determined as concentrations without visible growth after serial sub-cultivation of 10 µL of samples at 37 °C for 24 h. Ketoconazole and amphotericin B (SigmaAldrich, Darmstadt, Germany) were used as an antifungal control. The tested flavonoids were obtained from Extrasynthese, Rhone, France.

[4] = tested on: C. albicans 475/15; assay: Microdilution assay, MIC and MFC; type: cell-based; settings: Candida albicans
Source text: as §1, §2

[5] = tested on: C. albicans 10/15; assay: Microdilution assay, MIC and MFC; type: cell-based; settings: Candida albicans
Source text: as §1, §2

[6] = tested on: C. albicans 527/14; assay: Microdilution assay, MIC and MFC; type: cell-based; settings: Candida albicans
Source text: as §1, §2

[7] = tested on: C. albicans 13/15; assay: Microdilution assay, MIC and MFC; type: cell-based; settings: Candida albicans
Source text: as §1, §2

[8] = tested on: CDR1; assay: Expression of CDR1 (qPCR); type: cell-based, Candida albicans; settings: treatment with MIC
Procedure: (§3) Total RNA was isolated as described by Sanglard et al. with some modifications. C. albicans 475/15 was grown with agitation at 30 °C in YEPD until OD540 = 0.4. C. albicans cells were incubated with MIC of compounds in YEPD at 30 °C with agitation for 30 min. Cells were centrifuged (4600 rpm, 4 °C for 5 min (Rotanata 460 R, Hettich, Tuttlingen, Germany)) and the pellet was resuspended in 300 µL of RNA buffer (0.1 M Tris-HCl pH 7.5, 0.1M LiCl, 10mM EDTA, 0.5% SDS). The pellet was homogenized with 200 µL of DEPC treated glass beads and 300 µL of Phenol:Chloroform:Isoamyl Alcohol (Sigma-Aldrich, Darmstadt, Germany) in Precellys Evolution tissue homogenizer (Bertion instruments, Montigny-le-Bretonneux, France) at 4500 rpm for 5 s. After centrifugation (14,000 rpm, 4 °C, 1 min (Universal 32 R, Hettich, Tuttlingen, Germany)) 200 µL of supernatant was vortexed with 250 µL of Phenol:Chloroform:Isoamyl Alcohol for 10 s. Samples were centrifuged (14,000 rpm, 4 °C, 1 min) and 200 µL of supernatant was transferred to new tubes, 400 µL of ice-cold 99% ethanol was added to each tube, and they were kept on dry ice for 10 min. Samples were centrifuged (14,000 rpm, 4 °C, 2 min), pellet was washed with ethanol (70%), left to dry at room temperature, after which it was dissolved in 50 µL of DEPC treated water. Nanodrop (ND-1000, Witec AG, Sursee, Switzerland) was used for determination of concentration and purity of samples. RNA was stored at −80°C.
(§4) Amount of 10 µg RNA was incubated with 5 µL of DNAse buffer and 1 µL of DNAse at 37 °C for 30 min (DNA-free™ DNA Removal Kit, Ambion, Bleiswijk, Netherlands). After addition of DNAse inactivation reagent tubes were kept at room temperature with occasional vortexing for 5 min. Samples were centrifuged (14,000 rpm, 4°C, 2 min) and the concentration and quality of supernatant were analyzed on Nanodrop (ND-1000, Witec AG, Sursee, Switzerland).
(§5) Synthesis of cDNA was done with a Transcriptor High Fidelity cDNA synthesis kit (Roche). RNA (1 µg) was incubated with 60 µM random hexamer primers, in 11.4 µL of total sample volume, at 65 °C for 10 min. The mixture of Transcriptase reaction buffer 5×, Deoxynucleotide mix, DTT, Protector RNAse inhibitor, and Transcriptor High Fidelity Reverse Transcriptase was added to each tube according to manufacturer instructions. Synthesis of cDNA was completed by incubating the mixture at 50 °C for 30 min and 85 °C for 5 min (Peqstar thermocycler, Peqlab, Erlangen, Germany).
(§6) Wells of MicroAmp Fast 96-Well Reaction plate ((0.1 mL), Applied biosystems, Waltham, MA, USA) were incubated with 10 µL of mixture (cDNA, 2× MasterMix, primers, probe (Table 3), and water). Analysis was performed in StepOnePlus Real Time PCR system with relative standard curve method. Expression levels of CDR1 and ERG11 were normalized to expression of ACT1.

[9] = Cytotoxicity, Sulforhodamine B assay; settings: pig
Procedure: Preparation of PLP2 cell line was performed with freshly harvested porcine liver supplied from a local slaughter house. Tissues from the liver were washed in Hank’s balanced salt solution comprising 100 U/mL penicillin and 100 μg/mL streptomycin and split into 1 × 1 mm^3 explants. Some of the prepared explants were set in 25 cm^2 tissue flasks in Dulbecco’s modified Eagle’s medium (DMEM) with 10% fetal bovine serum (FBS), 2 mM nonessential amino acids, 100 U/mL penicillin, and […] streptomycin, and incubation was conducted at 37 °C with 5% CO2 in a humidified atmosphere. The fresh medium was added every 2 days. Cultivation of the cells was further conducted with direct observation by the phase contrast microscope every 2–3 days. Before confluence was achieved, cells were subcultured and seeded in 96-well plates at a density of 1.0 × 10^4 cells per well and cultivated in DMEM supplemented with 10% FBS, 100 U/mL penicillin, and 100 μg/mL streptomycin. Previously described Sulforhodamine B assay was used for the determination of cytotoxicity. The obtained results were defined as GI50 values corresponding to the compound concentration that inhibits 50% of the net cell growth. Ellipticine was used as a positive control.

[10] = tested on: C. albicans; settings: cited from earlier work
[11] = tested on: ERG11; assay: Expression of ERG11 (qPCR); type: cell-based, Candida albicans; settings: treatment with MIC
Procedure: as §3, §4, §5, §6

[12] = tested on: CDR1; settings: identical assay, previously published; cited from earlier work

For `C[C@@H]1O[C@@H](Oc2c(-c3ccc(O)c(O)c3)oc3cc(O)cc(O)c3c2=O)[C@H](O)[C@H](O)[C@H]1O` [Quercitrin, quercitrin], the “antibiofilm activity” value [1] is given as “complete lack of activity”, the “antibiofilm activity” value [2] is given as “lowest potential to reduce biofilm formation” and the “inhibition of biofilm formation” value [2] is given as “less than 50%”. For the same compound, the MIC [3] was 37.5 µg/mL (≈ 83.6 µM), the MFC ([4]; 475/15) was 75 ± 3 µg/mL (≈ 167 µM) and the MIC ([4]; 475/15) was 37.5 ± 2 µg/mL (≈ 83.6 µM). The MFC ([5]; 10/15) was 75 ± 3 µg/mL (≈ 167 µM), the MIC ([5]; 10/15) was 37.5 ± 2 µg/mL (≈ 83.6 µM) and the MFC ([6]; 527/14) was 75 ± 3 µg/mL (≈ 167 µM). For the same compound, the MIC ([6]; 527/14) was 37.5 ± 2 µg/mL (≈ 83.6 µM), the MFC ([7]; 13/15) was 75 ± 3 µg/mL (≈ 167 µM) and the MIC ([7]; 13/15) was 37.5 ± 1 µg/mL (≈ 83.6 µM). For the same compound, the “impact on CDR1 expression” value [8] was “downregulated”, the GI50 [9] was 73 ± 3 µg/mL (≈ 163 µM) and the MIC ([10]; C. albicans ATCC 10231, ref 17) was 100 µg/mL (≈ 223 µM). For the same compound, the MIC ([10]; C. albicans CAD1, clinical isolate) was over 512 µg/mL.

In the case of `C[C@@H]1O[C@@H](OC[C@H]2O[C@@H](Oc3c(-c4ccc(O)c(O)c4)oc4cc(O)cc(O)c4c3=O)[C@H](O)[C@@H](O)[C@@H]2O)[C@H](O)[C@H](O)[C@H]1O` [Rutin, rutin], the “antibiofilm activity” value [1] is given as “lack of C. albicans CAD1 antibiofilm activity”, the “antibiofilm activity” value [2] is given as “lowest activity against biofilm formation” and the “inhibition of biofilm formation” value [2] is given as “less than 50%”. It also gave an MIC ([3]; C. albicans, this study, strain not given) of 37.5 µg/mL (≈ 61.4 µM), an MFC ([4]; C. albicans 475/15, mean ± SD of three replicates, read-out: MFC) of 75 ± 1 µg/mL (≈ 123 µM) and an MIC ([4]; C. albicans 475/15, mean ± SD of three replicates, read-out: MIC) of 37.5 ± 1 µg/mL (≈ 61.4 µM). The MFC ([5]; C. albicans 10/15, mean ± SD of three replicates, read-out: MFC) was 75 ± 2 µg/mL (≈ 123 µM), the MIC ([5]; C. albicans 10/15, mean ± SD of three replicates, read-out: MIC) was 37.5 ± 1 µg/mL (≈ 61.4 µM) and the MFC ([6]; C. albicans 527/14, mean ± SD of three replicates, read-out: MFC) was 75 ± 1 µg/mL (≈ 123 µM). The MIC ([6]; C. albicans 527/14, mean ± SD of three replicates, read-out: MIC) was 37.5 ± 1 µg/mL (≈ 61.4 µM), the MFC ([7]; C. albicans 13/15, mean ± SD of three replicates, read-out: MFC) was 75 ± 2 µg/mL (≈ 123 µM) and the MIC ([7]; C. albicans 13/15, mean ± SD of three replicates, read-out: MIC) was 37.5 ± 1 µg/mL (≈ 61.4 µM). The GI50 [9] was over 400 µg/mL, the MIC ([10]; C. albicans ATCC 10231, ref 21) was 40 µg/mL (≈ 65.5 µM) and the MIC ([10]; C. albicans ATCC 18804) was over 1000 µg/mL. For the same compound, the “concentration necessary for growth inhibition” value ([10]; C. albicans CA-1) was 1000 µg/mL and the “impact on ERG11 expression (words)” value [11] was “lower expression levels; also recorded: negative impact; also recorded: lowering ERG11 expression”.

For `O=c1c(O[C@@H]2O[C@H](CO)[C@@H](O)[C@H](O)[C@H]2O)c(-c2ccc(O)cc2)oc2cc(O)cc(O)c12` [astragalin], the “impact on CDR1 expression” value [12] is given as “inhibitory impact”.
